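Step 1: Grow cells in 96-well plates. Step 2: Expose to compound for 48 hours at 5 concentrations. Step 3: Interpolate endpoints linearly; if unreached, use highest concentration. GI50 marks 50% less growth. The concentration for full growth arrest is given as TGI.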
Experiments:
Test in all cases: growth of human tumour cells (NCI), 48 h
A498 renal = tested on: A498 renal
A549 NSCLC = tested on: A549 NSCLC
EKVX NSCLC = tested on: EKVX NSCLC
HOP-62 NSCLC = tested on: HOP-62 NSCLC
MOLT-4 leukemia = tested on: MOLT-4 leukemia
NCI-H23 lung = tested on: NCI-H23 lung
TK-10 renal = tested on: TK-10 renal
U251 CNS = tested on: U251 CNS
K-562 leukemia = tested on: K-562 leukemia
NCI-H460 lung = tested on: NCI-H460 lung

With `O=C(NNC(=S)Nc1ccccc1)c1csc(NC(=S)NC2CCCCC2)n1` the TGI (A498 renal) was greater than 100 µM, the TGI (A549 NSCLC) was greater than 100 µM and the TGI (EKVX NSCLC) was greater than 100 µM. For the same compound, the TGI (HOP-62 NSCLC) was greater than 100 µM, the TGI (MOLT-4 leukemia) was greater than 100 µM and the TGI (NCI-H23 lung) was greater than 100 µM. The TGI (TK-10 renal) was greater than 100 µM and the TGI (U251 CNS) was greater than 100 µM.

`CN1C2CC(=O)CC1[C@@H]1OC(c3ccccc3)O[C@H]21` (some centres undefined) showed a TGI (A549 NSCLC) greater than 100 µM, a TGI (EKVX NSCLC) greater than 100 µM and a TGI (HOP-62 NSCLC) greater than 100 µM. For the same compound, the TGI (K-562 leukemia) was greater than 100 µM, the TGI (MOLT-4 leukemia) was greater than 100 µM and the TGI (NCI-H23 lung) was greater than 100 µM. For the same compound, the TGI (NCI-H460 lung) was greater than 100 µM, the TGI (TK-10 renal) was greater than 100 µM and the TGI (U251 CNS) was greater than 100 µM.

In the case of `Cc1ccc(O)c(C2=NNC(c3cccc(Br)c3)C2)c1` (centres undefined), the TGI (A549 NSCLC) is reported as greater than 100 µM, the TGI (EKVX NSCLC) is reported as greater than 100 µM and the TGI (HOP-62 NSCLC) is reported as greater than 100 µM. It also gave a TGI (K-562 leukemia) greater than 100 µM, a TGI (MOLT-4 leukemia) greater than 100 µM and a TGI (NCI-H23 lung) greater than 100 µM. It also gave a TGI (NCI-H460 lung) greater than 100 µM, a TGI (TK-10 renal) greater than 100 µM and a TGI (U251 CNS) greater than 100 µM.

In the case of `N#CCCN(CCCN(C(=O)Nc1ccccc1)c1ccccc1)C(=O)Nc1ccccc1`, the TGI (A549 NSCLC) is reported as greater than 100 µM, the TGI (EKVX NSCLC) is reported as greater than 100 µM and the TGI (HOP-62 NSCLC) is reported as greater than 100 µM. For the same compound, the TGI (K-562 leukemia) was greater than 100 µM, the TGI (MOLT-4 leukemia) was greater than 100 µM and the TGI (NCI-H23 lung) was greater than 100 µM. For the same compound, the TGI (NCI-H460 lung) was greater than 100 µM, the TGI (TK-10 renal) was greater than 100 µM and the TGI (U251 CNS) was greater than 100 µM.

`CC(C)(C)OC(=O)N1C(OP(=O)(Oc2ccccc2)Oc2ccccc2)=COc2cccnc21` gave a TGI (A549 NSCLC) greater than 100 µM, a TGI (EKVX NSCLC) greater than 100 µM and a TGI (HOP-62 NSCLC) greater than 100 µM. The TGI (K-562 leukemia) was greater than 100 µM, the TGI (MOLT-4 leukemia) was 43.3 µM and the TGI (NCI-H23 lung) was greater than 100 µM. The TGI (NCI-H460 lung) was 94 µM, the TGI (TK-10 renal) was greater than 100 µM and the TGI (U251 CNS) was greater than 100 µM.

`NC(=O)CC(Nc1ncc2c(n1)-c1ccccc1OC2)C(=O)O` (centres undefined) gave a TGI (A549 NSCLC) greater than 100 µM, a TGI (EKVX NSCLC) greater than 100 µM and a TGI (HOP-62 NSCLC) greater than 100 µM. The TGI (K-562 leukemia) was greater than 100 µM, the TGI (MOLT-4 leukemia) was greater than 100 µM and the TGI (NCI-H23 lung) was greater than 100 µM. The TGI (NCI-H460 lung) was greater than 100 µM, the TGI (TK-10 renal) was greater than 100 µM and the TGI (U251 CNS) was greater than 100 µM.

`O=C(N=Nc1ccccc1Br)NNc1ccccc1Br` showed a TGI (A498 renal) greater than 100 µM, a TGI (A549 NSCLC) greater than 100 µM and a TGI (HOP-62 NSCLC) greater than 100 µM. The TGI (K-562 leukemia) was greater than 100 µM, the TGI (MOLT-4 leukemia) was greater than 100 µM and the TGI (NCI-H23 lung) was greater than 100 µM. It also gave a TGI (NCI-H460 lung) greater than 100 µM, a TGI (TK-10 renal) greater than 100 µM and a TGI (U251 CNS) greater than 100 µM.

`CCOC(=O)C(Cc1ccccc1)(Cc1ccc(O)cn1)NC(=O)c1ccccc1` (centres undefined) was tested, and the TGI (A549 NSCLC) was greater than 100 µM, the TGI (EKVX NSCLC) was greater than 100 µM and the TGI (HOP-62 NSCLC) was greater than 100 µM. It also gave a TGI (K-562 leukemia) greater than 100 µM, a TGI (MOLT-4 leukemia) greater than 100 µM and a TGI (NCI-H23 lung) greater than 100 µM. It also gave a TGI (NCI-H460 lung) of 99.2 µM, a TGI (TK-10 renal) greater than 100 µM and a TGI (U251 CNS) of 57.7 µM.

`CCOC(=O)C(O)(NC(C)=O)C(F)(F)F` (centres undefined) showed a TGI (A549 NSCLC) greater than 100 µM, a TGI (EKVX NSCLC) greater than 100 µM and a TGI (HOP-62 NSCLC) greater than 100 µM. The TGI (K-562 leukemia) was greater than 100 µM, the TGI (MOLT-4 leukemia) was greater than 100 µM and the TGI (NCI-H23 lung) was greater than 100 µM. It also gave a TGI (TK-10 renal) greater than 100 µM and a TGI (U251 CNS) greater than 100 µM.

Compound `Nc1nc2c(ncn2C2C=CC(CO)O2)c(=O)[nH]1` (centres undefined) has a TGI (A498 renal) greater than 100 µM, a TGI (HOP-62 NSCLC) greater than 100 µM and a TGI (MOLT-4 leukemia) greater than 100 µM. The TGI (NCI-H23 lung) was greater than 100 µM, the TGI (NCI-H460 lung) was greater than 100 µM and the TGI (TK-10 renal) was greater than 100 µM. The TGI (U251 CNS) was greater than 100 µM.

In the case of `CCCCCCCCCCCCCCCCNc1nc(=O)n(C2CC(O)C(CO)O2)cc1F` (centres undefined), the TGI (A549 NSCLC) is reported as 18.7 µM, the TGI (EKVX NSCLC) is reported as 30.9 µM and the TGI (HOP-62 NSCLC) is reported as 20 µM. For the same compound, the TGI (MOLT-4 leukemia) was 37.7 µM, the TGI (NCI-H23 lung) was 18 µM and the TGI (NCI-H460 lung) was 27.3 µM. For the same compound, the TGI (TK-10 renal) was 27.5 µM and the TGI (U251 CNS) was 33.1 µM.

Work on `CC1(C)C2CC(c3ccncc3)ON2C(C)(C)N1O` (centres undefined) yielded a TGI (A549 NSCLC) greater than 100 µM, a TGI (EKVX NSCLC) greater than 100 µM and a TGI (HOP-62 NSCLC) greater than 100 µM. For the same compound, the TGI (K-562 leukemia) was greater than 100 µM, the TGI (MOLT-4 leukemia) was greater than 100 µM and the TGI (NCI-H23 lung) was greater than 100 µM. For the same compound, the TGI (NCI-H460 lung) was greater than 100 µM, the TGI (TK-10 renal) was greater than 100 µM and the TGI (U251 CNS) was greater than 100 µM.

`O=C1NC(N/N=C\c2ccccc2)=N/C1=C/c1ccc(Cl)cc1` gave a TGI (A549 NSCLC) of 62.9 µM, a TGI (EKVX NSCLC) of 67.4 µM and a TGI (HOP-62 NSCLC) of 42 µM. For the same compound, the TGI (K-562 leukemia) was greater than 100 µM, the TGI (MOLT-4 leukemia) was 33.9 µM and the TGI (NCI-H23 lung) was 39.9 µM. For the same compound, the TGI (NCI-H460 lung) was 53.5 µM, the TGI (TK-10 renal) was greater than 100 µM and the TGI (U251 CNS) was 76.9 µM.

`O=c1cc(-c2ccccc2)[nH]c2cccc(S)c12` gave a TGI (A549 NSCLC) greater than 100 µM, a TGI (EKVX NSCLC) greater than 100 µM and a TGI (HOP-62 NSCLC) greater than 100 µM. The TGI (K-562 leukemia) was greater than 100 µM, the TGI (MOLT-4 leukemia) was greater than 100 µM and the TGI (NCI-H23 lung) was greater than 100 µM. The TGI (NCI-H460 lung) was greater than 100 µM and the TGI (U251 CNS) was 11.4 µM.

In the case of `COc1c/c(=C2/C=c3ccccc3=N2)[nH]/c1=C/c1[nH]c(C)cc1C`, the GI50 (A498 renal) is reported as 0.267 µM, the TGI (A498 renal) is reported as 4.31 µM and the GI50 (A549 NSCLC) is reported as 0.219 µM. For the same compound, the TGI (A549 NSCLC) was greater than 100 µM, the GI50 (HOP-62 NSCLC) was 0.0458 µM and the TGI (HOP-62 NSCLC) was 0.459 µM. It also gave a GI50 (K-562 leukemia) of 0.152 µM, a TGI (K-562 leukemia) of 9.91 µM and a GI50 (MOLT-4 leukemia) of 0.0293 µM. For the same compound, the TGI (MOLT-4 leukemia) was 2.95 µM, the GI50 (U251 CNS) was 0.0454 µM and the TGI (U251 CNS) was 1.52 µM.

`CCOC(=O)C(C(=O)Cc1ccccc1)c1ccccc1` (centres undefined) gave a TGI (A549 NSCLC) greater than 100 µM, a TGI (EKVX NSCLC) greater than 100 µM and a TGI (HOP-62 NSCLC) greater than 100 µM. For the same compound, the TGI (K-562 leukemia) was greater than 100 µM, the TGI (MOLT-4 leukemia) was greater than 100 µM and the TGI (NCI-H23 lung) was greater than 100 µM. The TGI (NCI-H460 lung) was greater than 100 µM, the TGI (TK-10 renal) was greater than 100 µM and the TGI (U251 CNS) was greater than 100 µM.

Compound `OCCN=C1Nc2ccc(Cl)cc2C(=S)N2CSC[C@@H]12` has a TGI (A498 renal) greater than 100 µM, a TGI (A549 NSCLC) greater than 100 µM and a TGI (HOP-62 NSCLC) greater than 100 µM. For the same compound, the TGI (K-562 leukemia) was greater than 100 µM, the TGI (MOLT-4 leukemia) was greater than 100 µM and the TGI (NCI-H23 lung) was greater than 100 µM. The TGI (NCI-H460 lung) was greater than 100 µM and the TGI (U251 CNS) was greater than 100 µM.

In the case of `C=C1C[C@]23C[C@@]1(O)CC[C@H]2[C@@]12C=C[C@H](O)[C@@](C)(C(=O)O1)[C@H]2[C@@H]3C(=O)O`, the TGI (A549 NSCLC) is reported as greater than 100 µM, the TGI (EKVX NSCLC) is reported as greater than 100 µM and the TGI (HOP-62 NSCLC) is reported as greater than 100 µM. For the same compound, the TGI (K-562 leukemia) was greater than 100 µM, the TGI (MOLT-4 leukemia) was greater than 100 µM and the TGI (NCI-H23 lung) was greater than 100 µM. For the same compound, the TGI (NCI-H460 lung) was greater than 100 µM, the TGI (TK-10 renal) was greater than 100 µM and the TGI (U251 CNS) was greater than 100 µM.

In the case of `CSc1nncc(-c2cc3c(c(SC)n2)CCC3)n1`, the TGI (A549 NSCLC) is reported as greater than 100 µM, the TGI (EKVX NSCLC) is reported as greater than 100 µM and the TGI (HOP-62 NSCLC) is reported as greater than 100 µM. It also gave a TGI (NCI-H23 lung) greater than 100 µM, a TGI (TK-10 renal) greater than 100 µM and a TGI (U251 CNS) greater than 100 µM.
